Test results from ChEMBL document CHEMBL4043278, “Discovery of benzo[g]indoles as a novel class of non-covalent Keap1-Nrf2 protein-protein interaction inhibitor” (Bioorg Med Chem Lett, 2017).
Calls of active or inactive are those of the source. No cut-off for these calls is given here.

Tests used:
[1] = target: T1, Kelch-like ECH-associated protein 1/Nuclear factor erythroid 2-related factor 2 (Mus musculus) (UniProt Q60795+Q9Z2X8); experiment: Inhibition of Keap1-Nrf2 protein-protein interaction in MEF assessed as increase in Nrf2 activation mediated NQO1 mRNA level at 10 uM after 4 hrs by qRT-PCR method
[2] = target: T1, Kelch-like ECH-associated protein 1/Nuclear factor erythroid 2-related factor 2 (Mus musculus); experiment: Inhibition of Keap1-Nrf2 protein-protein interaction in MEF assessed as increase in Nrf2 activation mediated NQO1 mRNA level at 100 uM after 4 hrs by qRT-PCR method
[3] = Metabolic stability in human liver microsomes assessed as parent compound remaining at 1 uM preincubated for 3 mins followed by NADP+ addition measured after 30 mins by LC-MS assay; type: ADME, microsome; details: read-out: Stability
HepG2 = experiment: Cytotoxicity against human HepG2 cells assessed as reduction in cell viability at 50 uM after 24 hrs by WST8 assay; type: cell-based; details: hepg2, 24 h

T1 sequence (Q60795 whole entry, looked up): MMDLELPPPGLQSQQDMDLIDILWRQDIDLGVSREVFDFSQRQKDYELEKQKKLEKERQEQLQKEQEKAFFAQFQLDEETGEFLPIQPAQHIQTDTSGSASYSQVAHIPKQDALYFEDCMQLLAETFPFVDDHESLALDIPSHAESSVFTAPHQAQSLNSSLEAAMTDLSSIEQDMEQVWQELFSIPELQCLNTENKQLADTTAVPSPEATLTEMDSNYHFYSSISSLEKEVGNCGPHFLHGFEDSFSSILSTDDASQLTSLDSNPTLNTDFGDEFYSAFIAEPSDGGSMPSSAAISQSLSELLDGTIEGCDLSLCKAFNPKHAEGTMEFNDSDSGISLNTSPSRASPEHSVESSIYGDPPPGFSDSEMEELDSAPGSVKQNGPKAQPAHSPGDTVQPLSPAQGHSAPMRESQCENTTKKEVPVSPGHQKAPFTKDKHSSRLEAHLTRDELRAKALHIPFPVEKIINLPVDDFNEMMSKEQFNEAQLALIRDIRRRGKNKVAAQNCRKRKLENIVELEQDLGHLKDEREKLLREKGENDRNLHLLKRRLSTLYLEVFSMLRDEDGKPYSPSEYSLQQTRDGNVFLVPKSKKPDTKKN
T1 sequence (Q9Z2X8 whole entry, looked up): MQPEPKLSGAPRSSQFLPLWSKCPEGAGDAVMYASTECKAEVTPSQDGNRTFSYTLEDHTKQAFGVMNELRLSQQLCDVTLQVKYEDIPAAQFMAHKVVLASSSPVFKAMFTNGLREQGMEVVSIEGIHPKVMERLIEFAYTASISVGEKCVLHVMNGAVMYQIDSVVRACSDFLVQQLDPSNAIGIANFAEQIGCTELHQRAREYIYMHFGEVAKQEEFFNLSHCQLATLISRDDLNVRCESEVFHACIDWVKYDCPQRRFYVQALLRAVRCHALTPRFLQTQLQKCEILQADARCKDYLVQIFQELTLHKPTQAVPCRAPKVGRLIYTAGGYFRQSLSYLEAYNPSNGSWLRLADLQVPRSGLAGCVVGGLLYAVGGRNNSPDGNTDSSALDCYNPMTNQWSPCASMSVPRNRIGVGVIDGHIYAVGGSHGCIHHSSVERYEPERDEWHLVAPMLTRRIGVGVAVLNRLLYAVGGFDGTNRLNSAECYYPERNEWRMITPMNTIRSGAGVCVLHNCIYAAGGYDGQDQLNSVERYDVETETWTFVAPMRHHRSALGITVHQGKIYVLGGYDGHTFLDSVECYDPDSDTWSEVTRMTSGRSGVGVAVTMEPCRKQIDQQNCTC

Row | SMILES | inhibition [1] | inhibition [2] | remaining at 0.5 h, 1 µM [3] [%] | Activity (HepG2)
1 | CC(C)(C)c1cc(O)ccc1O | Active | – | – | –
2 | CCOc1ccc(S(=O)(=O)Nc2cc3c(C(=O)NO)c(C)n(S(=O)(=O)c4ccc(OCC)cc4)c3c3ccccc23)cc1 | – | Active | 81 | Non-Toxic
3 | COc1cccc2c1C(=O)c1c(O)c3c(c(O)c1C2=O)C[C@@](O)(C(=O)CO)C[C@@H]3O[C@H]1C[C@H](N)[C@H](O)[C@H](C)O1 [DOXORUBICIN] | – | – | – | Toxic
4 | COc1ccc(S(=O)(=O)Nc2cc3c(C(=O)NNc4ccc([N+](=O)[O-])cc4)c(C)n(S(=O)(=O)c4ccc(OC)cc4)c3c3ccccc23)cc1 | – | – | 86.5 | Toxic
5 | CNNC(=O)c1c(C)n(S(=O)(=O)c2ccc(OC)cc2)c2c1cc(NS(=O)(=O)c1ccc(OC)cc1)c1ccccc12 | – | – | 90.8 | Non-Toxic
6 | CCOc1ccc(S(=O)(=O)Nc2cc3c(C(=O)NN)c(C)n(S(=O)(=O)c4ccc(OCC)cc4)c3c3ccccc23)cc1 | – | – | 46.6 | Non-Toxic
7 | COc1ccc(S(=O)(=O)Nc2cc3c(C(=O)NNc4ccccc4)c(C)n(S(=O)(=O)c4ccc(OC)cc4)c3c3ccccc23)cc1 | – | – | 85.4 | Non-Toxic
8 | COc1ccc(NNC(=O)c2c(C)n(S(=O)(=O)c3ccc(OC)cc3)c3c2cc(NS(=O)(=O)c2ccc(OC)cc2)c2ccccc23)cc1 | – | – | 94.8 | Non-Toxic
9 | COc1ccc(S(=O)(=O)N(CC(=O)O)c2ccc(N(CC(=O)O)S(=O)(=O)c3ccc(OC)cc3)c3ccccc23)cc1 | – | – | 58.6 | Non-Toxic
10 | COc1ccc(S(=O)(=O)Nc2ccc(NS(=O)(=O)c3ccc(OC)cc3)c3ccccc23)cc1 | – | – | 9.3 | –
